Assays:
Assay type in all cases: functional
[1] = tested on: SK-MEL-28; test: Cytotoxicity against human SK-MEL-28 cells assessed as cell growth at 100 uM incubated for 48 hrs by sulforhodamine B assay relative to control; conditions: SK-MEL-28, 48 h, read-out: Activity
[2] = tested on: BT-549; test: Cytotoxicity against human BT549 cells assessed as cell growth at 100 uM incubated for 48 hrs by sulforhodamine B assay relative to control; conditions: BT-549, 48 h, read-out: Activity
[3] = tested on: ACHN; test: Cytotoxicity against human ACHN cells assessed as cell growth at 0.1 uM incubated for 48 hrs by sulforhodamine B assay relative to control; conditions: read-out: Activity
[4] = tested on: NCI-H522; test: Cytotoxicity against human NCI-H522 cells assessed as cell growth at 0.01 uM incubated for 48 hrs by sulforhodamine B assay relative to control; conditions: NCI-H522, 48 h, read-out: Activity
[5] = tested on: OVCAR-3; test: Cytotoxicity against human OVCAR3 cells assessed as cell growth at 1 uM incubated for 48 hrs by sulforhodamine B assay relative to control; conditions: OVCAR-3, 48 h, read-out: Activity
[6] = tested on: SNB-19; test: Cytotoxicity against human SNB19 cells assessed as cell growth at 10 uM incubated for 48 hrs by sulforhodamine B assay relative to control; conditions: SNB-19, 48 h, read-out: Activity
[7] = tested on: NCI-H460; test: Cytotoxicity against human NCI-H460 cells assessed as cell growth at 100 uM incubated for 48 hrs by sulforhodamine B assay relative to control; conditions: NCI-H460, 48 h, read-out: Activity
[8] = tested on: MDA-MB-468; test: Cytotoxicity against human MDA-MB-468 cells assessed as cell growth at 0.1 uM incubated for 48 hrs by sulforhodamine B assay relative to control; conditions: MDA-MB-468, 48 h, read-out: Activity
[9] = tested on: HCT-116; test: Cytotoxicity against human HCT116 cells assessed as cell growth at 0.1 uM incubated for 48 hrs by sulforhodamine B assay relative to control; conditions: HCT-116, 48 h, read-out: Activity
[10] = tested on: SN12C; test: Cytotoxicity against human SN12C cells incubated for 48 hrs by sulforhodamine B assay
[11] = tested on: NCI-H226; test: Cytotoxicity against human NCI-H226 cells assessed as cell growth at 100 uM incubated for 48 hrs by sulforhodamine B assay relative to control; conditions: NCI-H226, 48 h, read-out: Activity
[12] = tested on: SK-MEL-5; test: Cytotoxicity against human SK-MEL-5 cells assessed as cell growth at 0.01 uM incubated for 48 hrs by sulforhodamine B assay relative to control; conditions: SK-MEL-5, 48 h, read-out: Activity
[13] = tested on: TK-10; test: Cytotoxicity against human TK10 cells assessed as cell growth at 100 uM incubated for 48 hrs by sulforhodamine B assay relative to control; conditions: TK-10, 48 h, read-out: Activity
[14] = tested on: A549; test: Cytotoxicity against human A549/ATCC cells incubated for 48 hrs by sulforhodamine B assay; conditions: A549, 48 h
[15] = tested on: OVCAR-3; test: Cytotoxicity against human OVCAR3 cells assessed as cell growth at 100 uM incubated for 48 hrs by sulforhodamine B assay relative to control; conditions: OVCAR-3, 48 h, read-out: Activity
[16] = tested on: Hs-578T; test: Cytotoxicity against human Hs 578T cells assessed as cell growth at 0.01 uM incubated for 48 hrs by sulforhodamine B assay relative to control; conditions: read-out: Activity
[17] = tested on: HL-60(TB); test: Cytotoxicity against human HL-60(TB) cells assessed as cell growth at 10 uM incubated for 48 hrs by sulforhodamine B assay relative to control; conditions: HL-60, 48 h, read-out: Activity
[18] = tested on: NCI-H322M; test: Cytotoxicity against human NCI-H322M cells assessed as cell growth at 100 uM incubated for 48 hrs by sulforhodamine B assay relative to control; conditions: read-out: Activity
[19] = tested on: SR; test: Cytotoxicity against human SR cells assessed as cell growth at 0.1 uM incubated for 48 hrs by sulforhodamine B assay relative to control; conditions: read-out: Activity
[20] = tested on: NCI-H226; test: Cytotoxicity against human NCI-H226 cells assessed as cell growth at 10 uM incubated for 48 hrs by sulforhodamine B assay relative to control; conditions: NCI-H226, 48 h, read-out: Activity
[21] = tested on: HCC 2998; test: Cytotoxicity against human HCC2998 cells assessed as cell growth at 1 uM incubated for 48 hrs by sulforhodamine B assay relative to control; conditions: HCC 2998, 48 h, read-out: Activity
[22] = tested on: T47D; test: Cytotoxicity against human T47D cells assessed as cell growth at 0.01 uM incubated for 48 hrs by sulforhodamine B assay relative to control; conditions: read-out: Activity
[23] = tested on: PC-3; test: Cytotoxicity against human PC3 cells assessed as cell growth at 1 uM incubated for 48 hrs by sulforhodamine B assay relative to control; conditions: PC-3, 48 h, read-out: Activity
[24] = tested on: CCRF-CEM; test: Cytotoxicity against human CCRF-CEM cells assessed as cell growth at 10 uM incubated for 48 hrs by sulforhodamine B assay relative to control; conditions: read-out: Activity
[25] = tested on: SF-268; test: Cytotoxicity against human SF268 cells assessed as cell growth at 100 uM incubated for 48 hrs by sulforhodamine B assay relative to control; conditions: SF-268, 48 h, read-out: Activity
[26] = tested on: MOLT-4; test: Cytotoxicity against human MOLT4 cells assessed as cell growth at 100 uM incubated for 48 hrs by sulforhodamine B assay relative to control; conditions: MOLT-4, 48 h, read-out: Activity
[27] = tested on: M14; test: Cytotoxicity against human M14 cells assessed as cell growth at 0.1 uM incubated for 48 hrs by sulforhodamine B assay relative to control; conditions: M14, 48 h, read-out: Activity
[28] = tested on: MCF7; test: Cytotoxicity against human MCF7 cells assessed as cell growth at 100 uM incubated for 48 hrs by sulforhodamine B assay relative to control; conditions: MCF7, 48 h, read-out: Activity
[29] = tested on: NCI-H460; test: Cytotoxicity against human NCI-H460 cells assessed as cell growth at 10 uM incubated for 48 hrs by sulforhodamine B assay relative to control; conditions: NCI-H460, 48 h, read-out: Activity
[30] = tested on: HL-60(TB); test: Cytotoxicity against human HL-60(TB) cells incubated for 48 hrs by sulforhodamine B assay; conditions: HL-60, 48 h
[31] = tested on: MDA-MB-435; test: Cytotoxicity against human MDA-MB-435 cells assessed as cell growth at 10 uM incubated for 48 hrs by sulforhodamine B assay relative to control; conditions: MDA-MB-435, 48 h, read-out: Activity
[32] = tested on: CCRF-CEM; test: Cytotoxicity against human CCRF-CEM cells assessed as cell growth at 100 uM incubated for 48 hrs by sulforhodamine B assay relative to control; conditions: read-out: Activity
[33] = tested on: A498; test: Cytotoxicity against human A498 cells assessed as cell growth at 0.1 uM incubated for 48 hrs by sulforhodamine B assay relative to control; conditions: A498, 48 h, read-out: Activity

## COc1ccc(-c2nocc2-c2cc(OC)c(OC)c(OC)c2)cc1
[1]
  growth at 100 µM: -5%
[2]
  growth at 100 µM: -24%
[3]
  growth at 0.1 µM: 62%
[4]
  growth at 0.01 µM: 84%
[5]
  growth at 1 µM: 1%
[6]
  growth at 10 µM: 29%
[7]
  growth at 100 µM: -37%
[8]
  growth at 0.1 µM: 55%
[9]
  growth at 0.1 µM: 21%
[10]; read-out: GI50
  GI50: 825 nM
[10]; read-out: LC50
  LC50: > 100000 nM
[10]; read-out: TGI
  TGI: 92600 nM
[10]; read-out: pGI50 (converted)
  GI50: 832 nM
[10]; read-out: pLC50 (converted)
  LC50: > 100000 nM
[10]; read-out: pTGI (converted)
  TGI: 93300 nM
[11]
  growth at 100 µM: -20%
[12]
  growth at 0.01 µM: 100%
[13]
  growth at 100 µM: -10%
[14]; read-out: GI50
  GI50: 86.9 nM
[14]; read-out: LC50
  LC50: > 100000 nM
[14]; read-out: TGI
  TGI: > 100000 nM
[14]; read-out: pGI50 (converted)
  GI50: 87.1 nM
[14]; read-out: pLC50 (converted)
  LC50: > 100000 nM
[14]; read-out: pTGI
  TGI: > 100000 nM
[15]
  growth at 100 µM: -21%
[16]
  growth at 0.01 µM: 92%
[17]
  growth at 10 µM: -8%
[18]
  growth at 100 µM: 18%
[19]
  growth at 0.1 µM: 42%
[20]
  growth at 10 µM: 67%
[21]
  growth at 1 µM: 40%
[22]
  growth at 0.01 µM: 81%
[23]
  growth at 1 µM: 18%
[24]
  growth at 10 µM: 24%
[25]
  growth at 100 µM: 1%
[26]
  growth at 100 µM: 5%
[27]
  growth at 0.1 µM: 41%
[28]
  growth at 100 µM: 1%
[29]
  growth at 10 µM: 4%
[30]; read-out: GI50
  GI50: 48.8 nM
[30]; read-out: LC50 (the source's name)
  CC50: > 100000 nM
[30]; read-out: TGI
  TGI: 391 nM
[30]; read-out: pGI50 (converted)
  GI50: 49 nM
[30]; read-out: pLC50 (the source's name) (converted)
  CC50: > 100000 nM
[30]; read-out: pTGI (converted)
  TGI: 389 nM
[31]
  growth at 10 µM: -29%
[32]
  growth at 100 µM: 4%
[33]
  growth at 0.1 µM: 29%

Source: ChEMBL document CHEMBL4145521, “Regioselective synthesis of 3,4-diaryl-5-unsubstituted isoxazoles, analogues of natural cytostatic combretastatin A4” (Eur J Med Chem, 2018)
